Measured values as given in US5278171A, “Azadecalin amides and thioamides as inhibitors of cholesterol biosynthesis” (Merrell Dow Pharmaceuticals Inc., priority 1991, dated 1994).

Assays:
[1] = test system: Oxidosqualene Cyclase in HepG2 Cells; experiment: Inhibition of Oxidosqualene Cyclase in HepG2 Cells (IC50 for the inhibition of [14C]cholesterol biosynthesis); format: cell-based; conditions: Homo sapiens, read-out: IC50 HepG2 Cell
Experimental: 1. Inhibition of Oxidosqualene Cyclase in HepG2 Cells (IC50)
HepG2 cells, obtained from American Type Culture Collection, are seeded into plastic 6-well multiwell dishes and grown to 60-70% confluency in an atmosphere of 5%CO2 at 37° C. using Minimal Essential Media supplemented with 10% fetal bovine serum as culture media. The cells are washed and the media is replaced with one containing 10% lipoprotein-deficient serum instead of 10% fetal bovine serum. Twenty-four hours later the test compound is added to the culture media in ethanol to obtain concentrations of between 0 and 100 μM. One hour after the addition of the test compound, 2.0 μC of [^14 C]acetate is added to each well and the cells are allowed to incubate for an additional 2-3 hours. The cells are then harvested and extracted for analysis of ^14 C-labeled cholesterol, squalene monoepoxide and squalene diepoxide. These metabolites are separated and identified by a combination of high performance liquid chromatography and flow-through liquid scintillation spectroscopy. An IC50 for the inhibition of [^14 C]cholesterol biosynthesis is calculated based on the radioactivity in controls and treated cells.

Oxidosqualene cyclase = experiment: Inhibition of Purified Oxidosqualene Cyclase (I10); format: biochemical; conditions: purified oxidosqualene cyclase from rat liver microsomes, 10 μM [3H]squalene monoepoxide, pH 7.4, 37° C., 40 minutes
Experimental: Oxidosqualene cyclase is purified from rat liver microsomes by the sequential methods of: 1) solubilization with the detergent lauryl maltoside and 2) FPLC anion-exchange chromatography. Compounds are tested to determine their ability to inhibit the conversion of squalene monoepoxide to lanosterol catalyzed by the purified oxidosqualene cyclase. The reaction mixture (final volume, 200 μl) contains potassium phosphate buffer (50 mM, pH 7.4), Na2 EDTA (500 μM), Tween 80 (0.1%), [^3 H]squalene monoepoxide (10 μM of the racemic mixture, 50 μCi/μmol), test compound (10 μM) and purified oxidosqualene cyclase (50μg). The reagents, prior to mixing are equilibrated at 37° C. for 10 minutes. The reaction is initiated by adding enzyme. The mixture is incubated for 40 minutes with shaking in a water bath. The reaction is terminated by the addition of 5 ml of CHCl3 /MeOH (2:1, v/v), 0.8 ml of water and 10 μg each of squalene monoepoxide, squalene diepoxide, lanosterol and cholesterol. The organic layer is isolated and evaporated to dryness under nitrogen. […] Radioactivity is quantitated using an in-line scintillation counter.

Row | IC50 [1] [µM] | I10 purified enzyme (percent inhibition of oxidosqualene cyclase activity at 10 μM test compound) (Oxidosqualene cyclase) [%] | SMILES
1 | 0.7 | – | CCCCCCCCCCCC(=O)N1CC[C@H]2[C@H](C)[C@@H](O)CC[C@]2(C)C1 (relative stereo) [Example 102417, N-(1-Oxododecyl)-8-aza-4α,10-dimethyl-trans-decal-3β-ol]
2 | 52 | 100 | CC(C)CCSCCCCC(=O)N1CC[C@H]2[C@H](C)[C@@H](O)CC[C@]2(C)C1 (relative stereo) [Example 100905, N-[1-Oxo-5-(3-methylbutylmercapto)pentyl]-8-aza-4α,10-dimethyl-trans-decal-3β-ol]
